Measurements taken from publication PMC4833812, “Incorporation of tryptophan analogues into the lantibiotic nisin” (Amino Acids, 2016).

What was measured:
L. lactis MG1363 = experiment: MIC test against indicator strain L. lactis MG1363; assay type: cell-based, Lactococcus lactis; details: for Change of antimicrobial activity, in words: I1 variants compared to I1W, I4 variant compared to nisin
Protocol: The indicator strain L. lactis MG1363 was first streaked on a GM17 plate and cultured overnight. Before testing the MIC, three to five colonies were picked and cultured with GM17 medium until OD600 reached 0.5. The culture was diluted 500 times with GM17 and mixed with the same volume of peptides dissolved in GM17. The MIC value test was performed according to Wiegand et al. ([2008]).

[1] = Retention time in reverse phase chromatography (HPLC); assay type: physicochemical; details: reverse phase HPLC as described previously (Zhou et al. 2015); used by the paper to reflect changed hydrophobicity/polarity of the variants
Protocol: To obtain pure peptides for activity tests, the supernatant of 100 ml culture (filtered with 0.2 µm filter, Millipore) was first incubated with 5 ml supernatant of NisP (filtered) at 30 °C for 1 h to cut off the leader part and then purified with cation-ion exchange (HiTrap SP FF, GE healthcare) (van Heel et al. [2013]). The elutions were further loaded on a C18 column (Spherical C18, Sigma- Aldrich). The column was washed and eluted with different concentrations of solution B (solution A, milliQ with 0.1 % TFA; solution B, isopropanol: acetonitrile (2:1) with 0.1 % TFA). The elutions which were active against L. lactis were freeze-dried and further purified with HPLC as described previously (Zhou et al. [2015]). The fractions containing the peaks in the HPLC chromatogram were analysed by activity tests and MALDI-TOF (van Heel et al. [2013]). The peak which was active and contained the pure peptide with right mass was freeze-dried and quantified with HPLC as described previously (Zhou et al. [2015]).
Nisin is a positively charged and hydrophobic molecule. […] This difference was reflected by the elution time of the peptides in cation-ion exchange and reverse phase chromatography (HPLC). The variants with 5HW were eluted about half column volume earlier than other variants during cation-ion exchange (data not shown).

[2] = system: Streptococcus thermophilus; details: ref Kuipers et al. 1995; Demel et al. 1996; Van Kraaij et al. 1997; Breukink et al. 1998; cited from earlier work
From the text: (§1) The first two rings of nisin can bind to lipid II which is essential for cell wall synthesis. The C-terminus of nisin can insert into the membrane enabling pore formation (Breukink and de Kruijff [2006]). Mutagenesis of nisin has been conducted extensively and several residues have been mutated to tryptophan, e.g. I1W, M17W and V32W, which all reduce nisin activity but not dramatically, against Micrococcus flavus by two to three times and against Streptococcus thermophilus by three to eigh ... || The first two rings of nisin can bind to lipid II by forming a pyrophosphate cage (Hsu et al. [2004]).

Micrococcus flavus = details: ref Kuipers et al. 1995; Demel et al. 1996; Van Kraaij et al. 1997; Breukink et al. 1998; cited from earlier work
From the text: as §1

Row | SMILES | Change of antimicrobial activity, in words (L. lactis MG1363; listed as 5FW analogue of I1W) | Change of antimicrobial activity, in words (L. lactis MG1363; listed as 5FW labelled I1W) | Reduction of antimicrobial activity compared to nisin (L. lactis MG1363; from MIC values) | Retention time of HPLC [1] | Reduction of nisin activity against Streptococcus thermophilus [2] | Reduction of nisin activity against Micrococcus flavus (Micrococcus flavus) | Reduction of antimicrobial activity compared to I1W (L. lactis MG1363; from MIC values)
1 | C=C(NC(=O)[C@@H](NC(=O)[C@H](Cc1c[nH]cn1)NC(=O)[C@@H](NC(=O)[C@H](CO)NC(=O)[C@@H]1CS[C@@H](C)[C@H]2NC(=O)[C@H](C)NC(=O)[C@H](NC(=O)[C@H](CCCCN)NC(=O)[C@H](CCSC)NC(=O)[C@H](CC(N)=O)NC(=O)[C@@H]3CS[C@@H](C)[C@@H](NC(=O)[C@H](CCCCN)NC(=O)[C@@H]4CS[C@@H](C)[C@@H](NC(=O)[C@@H]5CSC[C@@H](NC(=O)/C(=C/C)NC(=O)[C@@H](N)Cc6c[nH]c7ccc(F)cc67)C(=O)N[C@@H]([C@@H](C)CC)C(=O)NC(=C)C(=O)N[C@@H](CC(C)C)C(=O)N5)C(=O)N5CCC[C@H]5C(=O)NCC(=O)N4)C(=O)NCC(=O)N[C@@H](C)C(=O)N[C@@H](CC(C)C)C(=O)N[C@@H](CCSC)C(=O)NCC(=O)N3)[C@H](C)SC[C@H](NC2=O)C(=O)N[C@@H](Cc2c[nH]cn2)C(=O)N1)[C@@H](C)CC)C(C)C)C(=O)N[C@@H](CCCCN)C(=O)O [I1-5FW] | did not change the activity | the same activity | two | 38.9 min | – | – | –
2 | C=C(NC(=O)[C@@H](NC(=O)[C@H](Cc1c[nH]cn1)NC(=O)[C@@H](NC(=O)[C@H](CO)NC(=O)[C@@H]1CS[C@@H](C)[C@H]2NC(=O)[C@H](C)NC(=O)[C@H](NC(=O)[C@H](CCCCN)NC(=O)[C@H](CCSC)NC(=O)[C@H](CC(N)=O)NC(=O)[C@@H]3CS[C@@H](C)[C@@H](NC(=O)[C@H](CCCCN)NC(=O)[C@@H]4CS[C@@H](C)[C@@H](NC(=O)[C@@H]5CSC[C@@H](NC(=O)/C(=C/C)NC(=O)[C@@H](N)[C@@H](C)CC)C(=O)N[C@@H]([C@@H](C)CC)C(=O)NC(=C)C(=O)N[C@@H](CC(C)C)C(=O)N5)C(=O)N5CCC[C@H]5C(=O)NCC(=O)N4)C(=O)NCC(=O)N[C@@H](C)C(=O)N[C@@H](CC(C)C)C(=O)N[C@@H](Cc4c[nH]c5ccc(O)cc45)C(=O)NCC(=O)N3)[C@H](C)SC[C@H](NC2=O)C(=O)N[C@@H](Cc2c[nH]cn2)C(=O)N1)[C@@H](C)CC)C(C)C)C(=O)N[C@@H](CCCCN)C(=O)O [M17-5HW] | – | – | 32 times | 37.2 min | – | – | –
3 | C=C(NC(=O)[C@@H](NC(=O)[C@H](Cc1c[nH]cn1)NC(=O)[C@@H](NC(=O)[C@H](CO)NC(=O)[C@@H]1CS[C@@H](C)[C@H]2NC(=O)[C@H](C)NC(=O)[C@H](NC(=O)[C@H](CCCCN)NC(=O)[C@H](CCSC)NC(=O)[C@H](CC(N)=O)NC(=O)[C@@H]3CS[C@@H](C)[C@@H](NC(=O)[C@H](CCCCN)NC(=O)[C@@H]4CS[C@@H](C)[C@@H](NC(=O)[C@@H]5CSC[C@@H](NC(=O)/C(=C/C)NC(=O)[C@@H](N)[C@@H](C)CC)C(=O)N[C@@H]([C@@H](C)CC)C(=O)NC(=C)C(=O)N[C@@H](CC(C)C)C(=O)N5)C(=O)N5CCC[C@H]5C(=O)NCC(=O)N4)C(=O)NCC(=O)N[C@@H](C)C(=O)N[C@@H](CC(C)C)C(=O)N[C@@H](Cc4c[nH]c5ccccc45)C(=O)NCC(=O)N3)[C@H](C)SC[C@H](NC2=O)C(=O)N[C@@H](Cc2c[nH]cn2)C(=O)N1)[C@@H](C)CC)C(C)C)C(=O)N[C@@H](CCCCN)C(=O)O [M17-W] | – | – | 32 times | 38.5 min | three to eight | two to three | –
4 | C=C(NC(=O)[C@@H](NC(=O)[C@H](Cc1c[nH]cn1)NC(=O)[C@@H](NC(=O)[C@H](CO)NC(=O)[C@@H]1CS[C@@H](C)[C@H]2NC(=O)[C@H](C)NC(=O)[C@H](NC(=O)[C@H](CCCCN)NC(=O)[C@H](CCSC)NC(=O)[C@H](CC(N)=O)NC(=O)[C@@H]3CS[C@@H](C)[C@@H](NC(=O)[C@H](CCCCN)NC(=O)[C@@H]4CS[C@@H](C)[C@@H](NC(=O)[C@@H]5CSC[C@@H](NC(=O)/C(=C/C)NC(=O)[C@@H](N)Cc6c[nH]c7ccc(O)cc67)C(=O)N[C@@H]([C@@H](C)CC)C(=O)NC(=C)C(=O)N[C@@H](CC(C)C)C(=O)N5)C(=O)N5CCC[C@H]5C(=O)NCC(=O)N4)C(=O)NCC(=O)N[C@@H](C)C(=O)N[C@@H](CC(C)C)C(=O)N[C@@H](CCSC)C(=O)NCC(=O)N3)[C@H](C)SC[C@H](NC2=O)C(=O)N[C@@H](Cc2c[nH]cn2)C(=O)N1)[C@@H](C)CC)C(C)C)C(=O)N[C@@H](CCCCN)C(=O)O [I1-5HW] | – | – | four | 35.0 min | – | – | two
5 | C=C(NC(=O)[C@@H](NC(=O)[C@H](Cc1c[nH]cn1)NC(=O)[C@@H](NC(=O)[C@H](CO)NC(=O)[C@@H]1CS[C@@H](C)[C@H]2NC(=O)[C@H](C)NC(=O)[C@H](NC(=O)[C@H](CCCCN)NC(=O)[C@H](CCSC)NC(=O)[C@H](CC(N)=O)NC(=O)[C@@H]3CS[C@@H](C)[C@@H](NC(=O)[C@H](CCCCN)NC(=O)[C@@H]4CS[C@@H](C)[C@@H](NC(=O)[C@@H]5CSC[C@@H](NC(=O)/C(=C/C)NC(=O)[C@@H](N)Cc6c[nH]c7ccccc67)C(=O)N[C@@H]([C@@H](C)CC)C(=O)NC(=C)C(=O)N[C@@H](CC(C)C)C(=O)N5)C(=O)N5CCC[C@H]5C(=O)NCC(=O)N4)C(=O)NCC(=O)N[C@@H](C)C(=O)N[C@@H](CC(C)C)C(=O)N[C@@H](CCSC)C(=O)NCC(=O)N3)[C@H](C)SC[C@H](NC2=O)C(=O)N[C@@H](Cc2c[nH]cn2)C(=O)N1)[C@@H](C)CC)C(C)C)C(=O)N[C@@H](CCCCN)C(=O)O [I1-W] | – | – | two | 38.0 min | three to eight | two to three | –
